Data taken from patent publication US20240374631A1, “A COMPOSITION FOR IMPROVING GUT MICROBIOTA, BEHAVIOURAL PATTERN, ALPHA-SYNUCLEIN LEVELS, SLEEP PATTERN AND/OR SERUM MELATONIN” (GN Corporation Co Ltd, priority 2021, published 2024).

Tested on: gut microbiota
Test: Gut microbiome analysis (16S rRNA sequencing of fecal samples) in STAM model of NASH
Assay type: in vivo, C57BL/6J mice
Conditions: post-intervention
Source text: The study is reported in accordance with Animal Research: Reporting of In Vivo Experiments (ARRIVE) guidelines. C57BL/6J mice were obtained from Japan SLC, Inc. (Japan). All animals used in this study were cared for under the following guidelines: Act on Welfare and Management of Animals (Ministry of the Environment, Japan, Act No. 105 of Oct. 1, 1973), standards relating to the care and management of laboratory animals and relief of pain (Notice No. 88 of the Ministry of the Environment, Japan, Apr. 28, 2006) and the guidelines for proper conduct of animal experiments (Science Council of Japan, Jun. 1, 2006). Protocol approvals were obtained from SMC Laboratories, Japan's IACUC (Study reference no: […] Mice were maintained in a specific pathogen-free (SPF) facility under controlled conditions of temperature (23±3° C.), humidity (50±20%), lighting (12-hour artificial light and dark cycles; light from 8:00 to 20:00) and air exchange. The STAM model of NASH was induced as previously described [D10]. Mice were given a single subcutaneous injection of 200 μg streptozotocin (STZ, Sigma-Aldrich, USA) solution 2 days after birth and fed with a high-fat diet (HFD, 57 kcal % fat, Cat #HFD32, CLEA Japan, Inc., Japan) from 4-9 weeks of age. All mice develop liver steatosis and diabetes and at […] mice had established steatohepatitis, histologically. Studygroups: There were five study groups, described below. Eight mice were included in each study group. Eight NASH mice were orally administered vehicle supplemented with AFO-202 Beta Glucan at a dose of 1 mg/kg in a volume of 5 mL/kg once daily from 6 to 9 weeks of age. Eight NASH mice were orally administered vehicle supplemented with Telmisartan at a dose of 10 mg/kg once daily from 6 to 9 weeks of age. Frequency: Fecal samples were collected at the 6 weeks of age (before administration) and 9 weeks of age (before sacrifice). Procedure: At 6 weeks of age, fecal samples were collected from each mouse by clean catch method. […] A sterile petri dish was placed on the bench. Gently massage the abdomen, position the bottom of mouse over a fresh petri dish, and collect 1-2 fecal pellets. At sacrifice, fecal samples were aseptically collected from cecum. The tubes with feces were placed on ice immediately. These tubes were snap frozen in liquid nitrogen and stored at -80° C. for shipping. In this analysis, the 16S rRNA sequence data acquired by the next-generation sequencer from the fecal […] was used to perform community analysis using the QIIME2 program for microbial community analysis. The raw read data in FASTQ format output from the next-generation sequencer was trimmed to remove adapter sequences and low QV regions that may be included in the data. Cutadapt was used to remove adapter sequences from DNA sequencing reads. Trimmomatic was used as read trimming tool for Illumina NGS data. The adapter sequence was trimmed using the adapter trimming program “cutadapt” if the Trimming of the region at the end of the read sequence overlapped the corresponding sequence by at least one base (mismatch tolerance: 20%). When reads containing N were present in at least one of Read1 and Read2, both Read1 and Read2 were removed. Trimming of low QV regions was performed on the read data after processing using the QV trimming program “Trimmomatic” under the following conditions. The window of 20 bases is slid from the 5' side, and the area where the average QV is less than 20 is trimmed. After trimming, only the reads with more than 50 bases remaining in both Read1 and Read2 were taken as output. The microbial community analysis based on 16S rRNA sequence was performed on the sequence data trimmed in the previous section using the microbial community analysis program “QIIME2”. The annotation program “sklearn” included in QIIME2 is used to annotate the ASV (OTU) sequences. […]

CCCc1nc2c(C)cc(-c3nc4ccccc4n3C)cc2n1Cc1ccc(-c2ccccc2C(=O)O)cc1 [Telmisartan]
Abundance: Ruminococcaceae, Oscillospira, — (line r190): 135
Abundance: Ruminococcaceae, Oscillospira, — (line r191): 53
Abundance: Lachnospiraceae, [Ruminococcus], gnavus (line r192): 87
Abundance: Ruminococcaceae, Oscillospira, — (line r193): 42
Abundance: Lactobacillaceae, Lactobaccilus, reuteri (line r194): 0
Abundance: Coriobacteriaceae, Adlercreutzia, — (line r195): 0
Abundance: Lachnospiraceae, —, — (line r196): 0
Abundance: S24-7, —, — (line r197): 49
Abundance: Turicibacteraceae, Turicibacter, — (line r198): 0
Abundance: S24-7, —, — (line r199): 41
Abundance: Rikenellaceae, —, — (line r200): 86
Abundance: Enterobacteriaceae, Other, Other (line r201): 0
Abundance: Rikenellaceae, Other, Other (line r202): 53
Abundance: Lactobacillaceae, Lactobaccilus, Other (line r204): 0
Abundance: —, —, — (line r205): 0
Abundance: S24-7, —, — (line r206): 45
Abundance: S24-7, —, — (line r207): 109
Abundance: —, —, — (line r208): 19
Abundance: Enterobacteriaceae, Klebsiella, Other (line r209): 0
Abundance: —, —, — (line r210): 3
Abundance: Lachnospiraceae, Other, Other (line r211): 137
Abundance: Ruminococcaceae, Oscillospira, — (line r212): 0
Abundance: Ruminococcaceae, Oscillospira, — (line r213): 65
Abundance: Bacteroidaceae, Bacteroides, acidifaciens (line r214): 35
Abundance: Erysipelotrichaceae, —, — (line r215): 0
Abundance: Lachnospiraceae, Dorea, — (line r216): 74
Abundance: Enterobacteriaceae, Enterobacter, Other (line r217): 41
Abundance: Ruminococcaceae, Oscillospira, — (line r218): 45
Abundance: Ruminococcaceae, Other, Other (line r219): 12
Abundance: Ruminococcaceae, Oscillospira, — (line r220): 184
Abundance: Rikenellaceae, —, — (line r221): 43
Abundance: —, —, — (line r222): 79
Abundance: Lachnospiraceae, Other, Other (line r223): 273
Abundance: Other, Other, Other (line r224): 87
Abundance: Ruminococcaceae, Oscillospira, — (line r225): 72
Abundance: S24-7, —, — (line r226): 85
Abundance: Lachnospiraceae, —, — (line r227): 0
Abundance: Streptococcaceae, Staphylococcus, — (line r228): 27
Abundance: —, —, — (line r229): 0
Abundance: —, —, — (line r230): 0
Abundance: —, —, — (line r231): 101
Abundance: Other, Other, Other (line r232): 71
Abundance: Aerococcaceae, Aerococcus, — (line r233): 187
Abundance: Ruminococcaceae, —, — (line r234): 0
Abundance: —, —, — (line r235): 108
Abundance: Ruminococcaceae, Oscillospira, — (line r237): 26
Abundance: —, —, — (line r238): 51
Abundance: Ruminococcaceae, Ruminococcus, — (line r239): 43
Abundance: —, —, — (line r240): 266
Abundance: Other, Other, Other (line r241): 48
Abundance: Ruminococcaceae, Oscillospira, — (line r242): 0
Abundance: Lachnospiraceae, [Ruminococcus], gnavus (line r243): 95
Abundance: Lachnospiraceae, —, — (line r244): 0
Abundance: Other, Other, Other (line r245): 45
Abundance: Ruminococcaceae, Oscillospira, — (line r246): 23
Abundance: —, —, — (line r247): 90
Abundance: Other, Other, Other (line r248): 11
Abundance: Other, Other, Other (line r249): 53
Abundance: Other, Other, Other (line r250): 57
Abundance: Lachnospiraceae, Clostridium, Other (line r251): 101
Abundance: Lachnospiraceae, —, — (line r252): 23
Abundance: Other, Other, Other (line r253): 0
Abundance: Other, Other, Other (line r254): 51
Abundance: Ruminococcaceae, Oscillospira, — (line r255): 38
Abundance: Desulfovibrionaceae, —, — (line r256): 42
Abundance: Dehalobacteriaceae, Dehalobacterium, — (line r257): 0
Abundance: Ruminococcaceae, Ruminococcus, — (line r259): 22
Abundance: Lachnospiraceae, Coprococcus, — (line r260): 46
Abundance: Ruminococcaceae, Oscillospira, — (line r261): 77
Abundance: Other, Other, Other (line r262): 38
Abundance: Lachnospiraceae, Coprococcus, — (line r263): 49
Abundance: Ruminococcaceae, Oscillospira, — (line r264): 0
Abundance: Christensenellaceae, —, — (line r265): 9
Abundance: S24-7, —, — (line r266): 8
Abundance: Ruminococcaceae, Oscillospira, — (line r267): 0
Abundance: Lachnospiraceae, Coprococcus, — (line r268): 29
Abundance: Lachnospiraceae, Other, Other (line r269): 0
Abundance: Erysipelotrichaceae, Clostridium, cocleatum (line r271): 34
Abundance: —, —, — (line r272): 0
Abundance: Desulfovibrionaceae, Bilophila, — (line r273): 17
Abundance: —, —, — (line r274): 0
Abundance: Corynebacteriaceae, Corynebacterium, stationis (line r275): 0
Abundance: Lachnospiraceae, Other, Other (line r276): 34
Abundance: Lachnospiraceae, Other, Other (line r277): 82
Abundance: Lachnospiraceae, —, — (line r278): 10
Abundance: Lachnospiraceae, —, — (line r279): 0
Abundance: —, —, — (line r280): 0
Abundance: —, —, — (line r281): 84
Abundance: —, —, — (line r282): 0
Abundance: Ruminococcaceae, —, — (line r283): 0
Abundance: —, —, — (line r284): 0
Abundance: Lachnospiraceae, —, — (line r285): 0
Abundance: Dehalobacteriaceae, Dehalobacterium, — (line r286): 43
Abundance: Other, Other, Other (line r287): 68
Abundance: Streptococcaceae, Streptococcus, luteciae (line r288): 0
Abundance: —, —, — (line r289): 0
Abundance: S24-7, —, — (line r290): 36
Abundance: Ruminococcaceae, Ruminococcus, — (line r292): 0
Abundance: Lachnospiraceae, Clostridium, Other (line r293): 0
Abundance: —, —, — (line r294): 10
Abundance: Ruminococcaceae, Oscillospira, — (line r295): 22
Abundance: Lachnospiraceae, Coprococcus, — (line r296): 30
Abundance: —, —, — (line r297): 0
